Experimental data: patent US4724233A, “Therapeutical application of phosphonylmethoxyalkyl adenines” (Stichting Rega VZW, priority 1985, dated 1988)
Converted amounts (≈) assume the structure as drawn. “Also recorded” adds a separate entry of the source. Where two headings read alike, the source gives them in different places.

Assays:
[1] = test system: HSV-1 (strain) TK^- C1101; assay: inhibition of cytopathic effect of HSV-1 TK- strain C1101; type: cell-based, herpes simplex virus type 1; conditions: for EC50: Human alphaherpesvirus 1, PRK, read-out: MIC50; for MIC50: Table 4, HSV-1 TK^- C1101, PRK cells
[2] = test system: CMV (strain) Davis; assay: inhibition of CMV strain Davis in HEL cells; type: cell-based, cytomegalovirus; conditions: Human betaherpesvirus 5, Table 5, read-out: MIC50
[3] = test system: TK^- herpes viruses; conditions: Prusoff et al.; cited from earlier work
[4] = test system: Vesicular stomatitis; assay: microbe, parasite or virus in culture; type: cell-based; conditions: for EC50: read-out: MIC50; for MIC50: Table 3, HeLa, PRK cells
[5] = test system: CMV (strain) AD 169; assay: inhibition of CMV strain AD 169 in HEL cells; type: cell-based, cytomegalovirus; conditions: Human betaherpesvirus 5; Table 5; CMV AD 169, HEL cells; read-out: MIC50
[6] = test system: Herpes simplex 2 (G); assay: inhibition of cytopathic effect of herpes simplex 2 (G); type: cell-based, herpes simplex virus type 2; conditions: PRK cells; for EC50: Human alphaherpesvirus 2, PRK, read-out: MIC50
[7] = test system: Vaccinia; assay: microbe, parasite or virus in culture; type: cell-based; conditions: for EC50: Orthopoxvirus vaccinia, PRK, read-out: MIC50; for MIC50: Table 3, PRK cells
[8] = test system: HSV-2 (strain) 196; assay: inhibition of cytopathic effect of HSV-2 strain 196; type: cell-based, herpes simplex virus type 2; conditions: Table 4, HSV-2 196, PRK cells; for EC50: Human alphaherpesvirus 2, read-out: MIC50
[9] = test system: Moloney sarcoma; assay: inhibition of Moloney sarcoma virus; type: cell-based, Moloney mouse sarcoma virus; conditions: Table 3, MO cells; for EC50: Mus musculus, read-out: MIC50
[10] = test system: HSV-1 (strain) F; assay: inhibition of cytopathic effect of HSV-1 strain F; type: cell-based, herpes simplex virus type 1; conditions: Table 4, HSV-1 F, PRK cells; for EC50: Human alphaherpesvirus 1, read-out: MIC50
[11] = test system: HSV-1 (strain) TK^- B2006; assay: inhibition of cytopathic effect of HSV-1 TK- strain B2006; type: cell-based, herpes simplex virus type 1; conditions: for EC50: Human alphaherpesvirus 1, PRK, read-out: MIC50
[12] = test system: HSV-1 (strain) McIntyre; assay: inhibition of cytopathic effect of HSV-1 strain McIntyre; type: cell-based, herpes simplex virus type 1; conditions: Table 4, HSV-1 McIntyre, PRK cells; for EC50: Human alphaherpesvirus 1, read-out: MIC50
[13] = test system: HSV-2 (strain) Lyons; assay: inhibition of cytopathic effect of HSV-2 strain Lyons; type: cell-based, herpes simplex virus type 2; conditions: Table 4, HSV-2 Lyons, PRK cells; for EC50: Human alphaherpesvirus 2, read-out: MIC50
[14] = test system: Herpes simplex I (KOS); assay: inhibition of cytopathic effect of herpes simplex 1 (KOS); type: cell-based, herpes simplex virus type 1; conditions: PRK cells; for EC50: Human alphaherpesvirus 1, read-out: MIC50
[15] = cited from earlier work
[16] = test system: VZV (strain) TK^- 07-1; assay: microbe, parasite or virus in culture; type: cell-based, varicella-zoster virus; conditions: Human alphaherpesvirus 3, HEL, read-out: MIC50
[17] = test system: Coxsackie B4; assay: inhibition of cytopathic effect of Coxsackie B4; type: cell-based; conditions: Table 3, Vero B, HeLa cells
[18] = antimetabolic activity: incorporation of 3H-labeled precursors into primary rabbit kidney cells; conditions: rabbit, prk cells
[19] = test system: Parainfluenza 3; assay: inhibition of cytopathic effect of parainfluenza 3; type: cell-based; conditions: Table 3, Vero B cells
[20] = test system: Measles; assay: inhibition of cytopathic effect of measles; type: cell-based; conditions: Table 3, Vero Flow cells
[21] = test system: VZV (strain) TK^- YSR; assay: microbe, parasite or virus in culture; type: cell-based, varicella-zoster virus; conditions: Human alphaherpesvirus 3, HEL, read-out: MIC50
[22] = test system: Sindbis; assay: inhibition of cytopathic effect of Sindbis; type: cell-based; conditions: Table 3, Vero B cells
[23] = test system: VZV (strain) YS; assay: microbe, parasite or virus in culture; type: cell-based, varicella-zoster virus; conditions: Human alphaherpesvirus 3, Table 5, HEL cells, read-out: MIC50
[24] = test system: Polio 1; assay: microbe, parasite or virus in culture; type: cell-based; conditions: for MIC50: Table 3, HeLa cells
[25] = test system: VZV (strain) OKa; assay: microbe, parasite or virus in culture; type: cell-based, varicella-zoster virus; conditions: Human alphaherpesvirus 3, HEL, read-out: MIC50
[26] = in vitro; conditions: rabbit, prk cells
[27] = test system: Reovirus; assay: inhibition of cytopathic effect of reovirus; type: cell-based; conditions: Table 3, Vero B cells
[28] = test system: DNA-viruses; type: cell-based
[29] = test system: herpes simplex virus type 1 (HSV-1) (strain KOS); type: cell-based; conditions: PRK cells
[30] = test system: vaccinia virus (VV); type: cell-based; conditions: PRK cells, average of two determinations
[31] = test system: PRK cells; assay: antimetabolic activity: incorporation of 3H-labeled precursors into primary rabbit kidney cells; conditions: for ID50 dUrd incorporation: (3H-1',2')dUrd; for ID50 Leu incorporation: (3H-4,5)Leu; for ID50 Urd incorporation: (3H-5)Urd; for ID50 dThd incorporation: (3H-methyl) dThd
[32] = test system: PRK cells; conditions: 72 h
[33] = 48 h, 10 μg/ml (value in parentheses)

Molecule: Nc1nc2c(ncn2COCCO)c(=O)[nH]1 [ACV, aclycovir, reference compound]
- EC50 [1]: 20 mg/L (≈ 88.8 µM)
- EC50 [2]: 20 mg/L (≈ 88.8 µM)
- activity against TK^- herpes viruses (in words) [3]: inactive
- EC50 [4]: > 400 mg/L
- EC50 [5]: 30 mg/L (≈ 133 µM)
- EC50 ([6]; Table 3): 0.7 mg/L (≈ 3.11 µM)
- EC50 ([6]; Table 4, HSV-2 G): 0.07 mg/L (≈ 0.311 µM)
- EC50 [7]: 70 mg/L (≈ 311 µM)
- EC50 [8]: 0.07 mg/L (≈ 0.311 µM)
- EC50 [9]: 50 mg/L (≈ 222 µM)
- EC50 [10]: 0.2 mg/L (≈ 0.888 µM)
- EC50 [11]: 70 mg/L (≈ 311 µM)
- EC50 [12]: 0.1 mg/L (≈ 0.444 µM)
- EC50 [13]: 0.07 mg/L (≈ 0.311 µM)
- EC50 ([14]; Table 3): 0.2 mg/L (≈ 0.888 µM)
- solubility (in words) [15]: low solubility

Molecule: Nc1ncnc2c1ncn2C[C@@H](CO)OCP(=O)(O)O [No. 4, (S)-9-(3-hydroxy-2-phosphonylmethoxypropyl)adenine]
- EC50 [16]: 0.004 mg/L (≈ 0.0132 µM)
- EC50 ([17]; Enterovirus B, B4, read-out: MIC50): > 400 mg/L
- IC50 ([18]; ID50 Leu incorporation, (3H-4,5)Leu): > 400 mg/L
- IC50 ([18]; ID50 Urd incorporation, (3H-5)Urd): > 400 mg/L
- IC50 ([18]; ID50 dThd incorporation, (3H-methyl) dThd): 297 mg/L (≈ 980 µM)
- IC50 ([18]; ID50 dUrd incorporation, (3H-1',2')dUrd): 74 mg/L (≈ 244 µM)
- EC50 ([19]; read-out: MIC50): > 200 mg/L
- EC50 [1]: 1 mg/L (≈ 3.3 µM)
- EC50 [2]: 0.3 mg/L (≈ 0.989 µM)
- EC50 ([20]; Measles morbillivirus, read-out: MIC50): > 40 mg/L
- EC50 [21]: 0.004 mg/L (≈ 0.0132 µM)
- EC50 ([22]; read-out: MIC50): > 400 mg/L
- EC50 [4]: > 400 mg/L
- EC50 [5]: 0.3 mg/L (≈ 0.989 µM)
- EC50 ([6]; Table 3): 1 to 3 mg/L (≈ 3.3 to 9.89 µM)
- EC50 ([6]; Table 4, HSV-2 G): 1 to 3 mg/L (≈ 3.3 to 9.89 µM)
- EC50 [7]: 0.3 to 1.5 mg/L (≈ 0.989 to 4.95 µM)
- EC50 [23]: 0.004 mg/L (≈ 0.0132 µM)
- EC50 ([24]; HeLa, read-out: MIC50): > 400 mg/L
- EC50 [8]: 1 to 3 mg/L (≈ 3.3 to 9.89 µM)
- EC50 [9]: 1 mg/L (≈ 3.3 µM)
- EC50 [25]: 0.004 mg/L (≈ 0.0132 µM)
- EC50 [10]: 1 to 3 mg/L (≈ 3.3 to 9.89 µM)
- EC50 [11]: 1 mg/L (≈ 3.3 µM)
- MCC at 72 h [26]: ≥ 200 µg/mL
- EC50 ([27]; Reovirus sp., read-out: MIC50): > 40 mg/L
- EC50 [12]: 1 to 3 mg/L (≈ 3.3 to 9.89 µM)
- antiviral activity (in words) [28]: the most effective one; also recorded: best antiviral activity
- Titer of HSV-1 ([29]; 24 h, 100 μg/ml): < 1.3 log10 PFU/ml
- Titer of HSV-1 [29, 33]: 4.3 log10 PFU/ml
- Titer of HSV-1 ([29]; 48 h, 100 μg/ml): < 1.3 log10 PFU/ml
- EC50 [13]: 1 mg/L (≈ 3.3 µM)
- EC50 ([14]; Table 3): 1 mg/L (≈ 3.3 µM)
- Titer of VV [30, 33]: < 1.3 log10 PFU/ml
- Titer of VV ([30]; 48 h, 100 μg/ml): < 1.3 log10 PFU/ml

Molecule: Nc1ncnc2c1ncn2CC1COP(=O)(O)CO1 (racemic) [No. 5, 2',3'-cyclic O-phosphonylmethyl ether of (RS)-9-(2,3-dihydroxypropyl)adenine]
- MIC50 [17]: > 400 mg/L
- ID50 dUrd incorporation [31]: ≥ 360 mg/L
- ID50 Leu incorporation [31]: > 400 mg/L
- ID50 Urd incorporation [31]: > 400 mg/L
- ID50 dThd incorporation [31]: ≥ 390 mg/L
- MIC50 [19]: > 400 mg/L
- MIC50 [1]: 7 mg/L (≈ 24.5 µM)
- MCC (minimal cytotoxic concentration) [32]: > 400 µg/mL
- MIC50 [20]: > 100 mg/L
- MIC50 [22]: > 400 mg/L
- MIC50 [4]: > 400 mg/L
- MIC50 ([6]; Table 3): 30 mg/L (≈ 105 µM)
- MIC50 [7]: 0.7 to 3.0 mg/L
- MIC50 [24]: > 400 mg/L
- MIC50 [8]: 15 mg/L (≈ 52.6 µM)
- MIC50 [9]: > 200 mg/L
- MIC50 [10]: 30 mg/L (≈ 105 µM)
- MIC50 [27]: > 200 mg/L
- MIC50 [12]: 30 mg/L (≈ 105 µM)
- Titer of HSV-1 ([29]; 24 h, 100 μg/ml): < 1.3 log10 PFU/ml
- Titer of HSV-1 [29, 33]: 6.04 log10 PFU/ml
- Titer of HSV-1 ([29]; 48 h, 100 μg/ml): 2.8 log10 PFU/ml
- MIC50 [13]: 15 mg/L (≈ 52.6 µM)
- MIC50 ([14]; Table 3): 30 mg/L (≈ 105 µM)
- Titer of VV ([30]; 1 h, 100 μg/ml): 1.6 log10 PFU/ml
- Titer of VV ([30]; 24 h, 100 μg/ml): 1.8 log10 PFU/ml
- Titer of VV [30, 33]: < 1.3 log10 PFU/ml
- Titer of VV ([30]; 48 h, 100 μg/ml): < 1.3 log10 PFU/ml
- Titer of VV ([30]; 72 h, 100 μg/ml): 1.5 log10 PFU/ml

Molecule: (RS)-9-(2(3)hydroxy-3(2)-phosphonylmethoxypropyl)adenine [No. 1]
- MIC50 [17]: > 400 mg/L
- ID50 dUrd incorporation [31]: 230 mg/L
- ID50 Leu incorporation [31]: > 400 mg/L
- ID50 Urd incorporation [31]: > 400 mg/L
- ID50 dThd incorporation [31]: 250 mg/L
- MIC50 [19]: > 200 mg/L
- MIC50 [1]: 7 to 20 mg/L
- MCC (minimal cytotoxic concentration) [32]: ≥ 100 µg/mL
- MIC50 [20]: > 400 mg/L
- MIC50 [22]: > 400 mg/L
- MIC50 [4]: > 400 mg/L
- MIC50 ([6]; Table 3): 7 to 20 mg/L
- MIC50 ([6]; Table 4, HSV-2 G): 7 to 20 mg/L
- MIC50 [7]: 0.7 to 3.0 mg/L
- MIC50 [24]: > 400 mg/L
- MIC50 [8]: 15 to 70 mg/L
- MIC50 [9]: > 60 mg/L
- MIC50 [10]: 15 to 30 mg/L
- MIC50 ([11]; Table 4, HSV-1 TK^- B2006, PRK cells): 7 mg/L
- MIC50 [27]: > 400 mg/L
- MIC50 [12]: 30 mg/L
- Titer of HSV-1 ([29]; 1 h, 100 μg/ml): < 1.3 log10 PFU/ml
- Titer of HSV-1 ([29]; 24 h, 100 μg/ml): 3.3 log10 PFU/ml
- Titer of HSV-1 ([29]; 48 h, 100 μg/ml): 4.0 log10 PFU/ml
- Titer of HSV-1 ([29]; 72 h, 100 μg/ml): 3.9 log10 PFU/ml
- MIC50 [13]: 7 to 15 mg/L
- MIC50 ([14]; Table 3): 20 to 30 mg/L
- MIC50 ([14]; Table 4, HSV-1 KOS): 20 to 30 mg/L
- Titer of VV ([30]; 1 h, 100 μg/ml): 1.7 log10 PFU/ml
- Titer of VV ([30]; 24 h, 100 μg/ml): 1.7 log10 PFU/ml
- Titer of VV ([30]; 48 h, 100 μg/ml): 1.2 log10 PFU/ml
- Titer of VV ([30]; 72 h, 100 μg/ml): 1.5 log10 PFU/ml
